Measurements: US20240174634A1, “Aldehyde Dehydrogenase Inhibitors and Their Therapeutic Use” (priority 2020, published 2024)
pIC50: −log10 of the molar value.

Target: T1, ALDH1A3 (Homo sapiens, UniProt P47895)
T1 sequence (P47895 1-512): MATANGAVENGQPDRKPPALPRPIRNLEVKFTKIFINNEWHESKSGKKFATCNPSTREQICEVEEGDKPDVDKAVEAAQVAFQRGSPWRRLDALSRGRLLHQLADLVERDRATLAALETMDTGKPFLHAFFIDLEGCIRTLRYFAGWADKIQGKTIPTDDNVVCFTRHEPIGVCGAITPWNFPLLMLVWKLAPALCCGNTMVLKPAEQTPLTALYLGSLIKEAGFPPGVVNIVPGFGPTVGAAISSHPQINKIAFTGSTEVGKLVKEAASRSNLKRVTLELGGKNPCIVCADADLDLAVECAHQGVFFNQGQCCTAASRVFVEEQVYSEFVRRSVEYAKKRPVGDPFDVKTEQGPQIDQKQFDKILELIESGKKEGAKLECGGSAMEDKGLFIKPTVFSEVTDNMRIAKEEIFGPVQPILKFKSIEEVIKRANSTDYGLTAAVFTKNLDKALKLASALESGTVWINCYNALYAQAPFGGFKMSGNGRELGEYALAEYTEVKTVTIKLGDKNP
Experiment: ALDH1A3 cellular assay (ALDEFLUOR) in WM266.4 melanoma cells
Format: cell-based
Conditions: WM266.4 cells; 60 min incubation; percentage of ALDH-positive cells
Procedure, shortened: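 WM266.4 melanoma cells, 7500 per well, incubated overnight, then 60 min at 37 °C with compound (10 μM to 0.0005 μM, 10 points) plus BAAA substrate (500 nM final), verapamil (50 μM) and Hoechst. Imaged BODIPY fluorescence per cell; EC50 from percentage of ALDH-positive cells.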

Q: With `O=C1CCc2cc(NC(=O)c3sc(N4CC(O)C4)nc3-c3cccc(F)c3)ccc2N1` [ALDHI-1004, 4-(3-fluorophenyl)-2-(3-hydroxyazetidin-1-yl)-N-(2-oxo-3,4-dihydro-1H-quinolin-6-yl)thiazole-5-carboxamide] as the compound, how does the pIC50 read?
A: > 7.00

Q: How did the pIC50 turn out when `CC1Oc2cc(OCCN3CCCC3c3cccc(F)c3)ccc2NC1=O` (stereo not shown) [ALDHI-2044, 7-[2-[2-(3-fluorophenyl)pyrrolidin-1-yl]ethoxy]-2-methyl-4H-1,4-benzoxazin-3-one] was run?
A: 6.00 to 7.00

Q: With `O=C1CCc2cc(OCCN(CCO)Cc3cccnc3)ccc2N1` [ALDHI-3005, 6-[2-[2-hydroxyethyl(3-pyridylmethyl)amino]ethoxy]-3,4-dihydro-1H-quinolin-2-one] as the compound, how does the pIC50 read?
A: 6.00 to 7.00

Q: `CN(CCOc1ccc2c(c1)CCC(=O)N2)Cc1cccc(F)c1` [ALDHI-3001, 6-[2-[(3-fluorophenyl)methyl-methyl-amino]ethoxy]-3,4-dihydro-1H-quinolin-2-one] was tested. Which pIC50 did it give?
A: 6.00 to 7.00
